Data on 31 compounds can be found in US20100316655A1, “COMPOUNDS WITH MDR1-INVERSE ACTIVITY” (priority 2008, published 2010).

A value given as a limit tells only on which side of the number the result lay.

In general, IC50 refers to the concentration needed to halve the response being measured.

The subject of assay [1] is KB-3-1 adenocarcinoma cells. Description: MTT cytotoxicity assay, parental P-gp-negative KB-3-1 cells. It counts as cell-based, human. The method, then: (§1) Exemplary compounds were also tested against the KB-V1 adenocarcinoma cell line that expresses high levels of P-gp (the protein product of MDR1). […] MDR1 selectivity is determined by the ratio of IC50 against KB-3-1 cells divided by its IC50 against KB-V1 cells.
(§2) This example describes evaluation of compounds using the MTT cytotoxicity assay. Cell survival was measured by the MTT (3-(4,5-dimethylthiazol-2-yl)-2,5-diphenyltetrazolium bromide) assay as previously described by Ludwig, J. A. et al. Selective toxicity of NSC73306 in MDR1-positive cells as a new strategy to circumvent multidrug resistance in cancer. […] Briefly, cells were seeded in […] of growth medium at a density of 5000 cells/well in 96-well plates and allowed to establish for 24 hours, at which time serially diluted drugs were added in an additional […] growth medium. Cells were then incubated for 72 hours at 37° C. in humidified 5% CO2, at which time the growth media was drawn, and replaced with MTT in IMDM growth media and incubated for 4 hours. The MTT solution was then drawn from the wells, and […] acidified ethanol solution was added to each well and after 15 minutes absorption at 560 nm was measured.
In general terms: Tetrazolium dyes change colour on reduction, which living cells bring about.

In assay [2] the test system is KB-V1 adenocarcinoma cell line. Nature of the assay: MTT cytotoxicity assay, P-gp (MDR1) expressing KB-V1 cells; MDR1 selectivity vs KB-3-1. Conditions: for IC50: MTT, 72 hours; for MDR1 select. / MDR1 selectivity: ratio of IC50 against KB-3-1 divided by IC50 against KB-V1; for MDR1-inverse selectivity (in words): Example 3, Table 1, KB-V1 vs KB-3-1; for MDR1 selectivity: >1 = MDR1-inverse activity. It counts as cell-based, human. Here is the method: as §1, §2

The mark [3] stands for this setting: Table 2, 72 hours, unit inferred.
Where [4] appears, read: Homo sapiens, KB 3-1, Table 2, 72 hours, unit inferred.
The mark [5] stands for this setting: Homo sapiens, KB-V1, Table 2, unit inferred.
Setting [6] is: Homo sapiens, Table 1, 72 hours, KB-3-1 (P-gp-negative).
Where [7] appears, read: Homo sapiens, Table 1, KB-V1 (high P-gp).

`O=C1Nc2ccccc2C1=NNC(=S)Nc1ccccc1` [Compound M8, 1-Isatin-(phenyl)-3-thiosemicarbazone]: the half-maximal inhibitory concentration (IC50) in assay [1] (setting [3]) is 3.53 µM; in assay [2] (Table 2, unit inferred), 1.47 µM. Moreover, in assay [2] (Table 2), the MDR1 select. was determined as 2.40.
In the case of `O=C1Nc2ccccc2C1=NNC(=S)NCc1ccccc1` [Compound M6, 1-Isatin-4-benzyl-3-thiosemicarbazone], the IC50 in assay [1] (setting [3]) turned out to be 11.7 µM; in assay [2] (Table 2, unit inferred) it was 7.63 µM. Further, the MDR1 select. in assay [2] (Table 2) was 1.53.
With `O=C1Nc2ccc(F)cc2/C1=N/NC(=S)Nc1ccc(F)cc1` [Compound M10, 1-(5′-fluoroisatin)-4-(4′-fluorophenyl)-3-thiosemicarbazone], the IC50 in assay [1] (setting [4]) is 3.72 µM; in assay [2] (setting [5]), 0.91 µM. The MDR1 select. in assay [2] (Table 2) is 4.07.
Take `COc1ccc(NC(=S)N/N=C2\C(=O)Nc3ccc([N+](=O)[O-])cc32)cc1` [Compound 12, 1-(5′-Nitroisatin)-4-(4′-methoxyphenyl)-3-thiosemicarbazone]: in assay [2], the “MDR1-inverse selectivity (in words)” value is “MDR1-inverse selectivity”.
Take `CCCCNC(=S)NN=C1C(=O)Nc2ccccc21` [Compound M11, 1-Isatin-4-butyl-3-thiosemicarbazone]: the IC50 in assay [1] (setting [3]) amounted to 10.9 µM; in assay [2] (Table 2, unit inferred), 5.69 µM. Moreover, in assay [2] (Table 2), the MDR1 select. is reported as 1.91.
The like results for `COc1cc(NC(=S)NN=C2C(=O)Nc3ccccc32)cc(OC)c1OC` [Compound M23, 1-isatin-4-(3′,4′,5′-trimethoxyphenyl)-3-thiosemicarbazone] were, in that order, 11.1 µM, 3.49 µM and 3.18.
Consider `O=C1Nc2ccccc2/C1=N/NC(=S)Nc1ccc(F)cc1` [Compound M14, 1-Isatin-4-(4′-fluorophenyl)thiosemicarbazone], for which the IC50 worked out at 14.2 µM in assay [1] (setting [4]) and 1.92 µM in assay [2] (setting [5]). Moreover, the MDR1 select. in assay [2] (Table 2) was found to be 7.36.
In the case of `O=C1Nc2ccccc2/C1=N/NC(=S)Nc1c(F)cc(F)cc1F` [Compound M13, 1-Isatin-4-(2′,4′,6′-trifluorophenyl)thiosemicarbazone], the IC50 in assay [1] (setting [4]) amounted to 38.4 µM; in assay [2] (setting [5]) it was 7.28 µM. In assay [2] (Table 2), the MDR1 select. was 5.27.
Regarding `O=C1Nc2ccccc2C1=NNC(=S)Nc1ccc(Cl)cc1` [Compound M12, 1-Isatin-(4′-chlorophenyl)-3-thiosemicarbazone], the half-maximal inhibitory concentration (IC50) was determined as 13.4 µM in assay [1] (setting [3]) and 4.99 µM in assay [2] (Table 2, unit inferred). Moreover, the MDR1 select. in assay [2] (Table 2) worked out at 2.68.
The like results for `O=C1Nc2ccccc2C1=NNC(=S)Nc1ccc(Oc2ccccc2)cc1` [Compound M21, 1-Isatin-4-(4-phenoxybenzene)-3-thiosemicarbazone] were, in that order, 5.72 µM, 1.67 µM and 3.44.
The like results for `CN(C)c1ccc(NC(=S)NN=C2C(=O)Nc3ccccc32)cc1` [Compound M3, 1-Isatin-4-(4′-(dimethylamino)phenyl)-3-thiosemicarbazone] were, in that order, 6.95 µM, 2.23 µM and 2.99.
Take `COc1ccc(NC(=S)NN=C2C(=O)Nc3ccccc32)cc1` [NSC73306, 1-Isatin-4-(4′ methoxyphenyl)thiosemicarbazone, reference compound]: the IC50 in assay [1] (setting [3]) was determined as 14.2 µM; in assay [2] (Table 2, unit inferred), 3.3 µM. Besides, the “MDR1-inverse selectivity (in words)” value in assay [2] is on record as “MDR1-inverse selectivity”. For the same compound, the MDR1 select. in assay [2] (Table 2) was 4.3.
As to `COc1ccc(NC(=S)N/N=C2\C(=O)Nc3ccc(F)cc32)cc1` [drawing 34], the IC50 turned out to be 39.3 ± 23.3 µM in assay [1] (setting [6]) and 5.2 ± 1.1 µM in assay [2] (setting [7]). In assay [2] (Table 1), the MDR1 selectivity is reported as 7.5.
Take `O=C1Nc2ccc(Br)cc2/C1=N/NC(=S)Nc1ccc([N+](=O)[O-])cc1` [NSC716772, 1-(5′-Bromoisatin)-4-(4′-nitrophenyl)-3-thiosemicarbazone]: in assay [2], the “MDR1-inverse selectivity (in words)” value is reported as “MDR1-inverse selectivity”.
For `NC(=S)N/N=C1\C(=O)Nc2ccccc21`, the 50% inhibitory concentration (IC50) in assay [1] (setting [6]) and in assay [2] (setting [7]) was over 50 µM in each case.
As to `CC(=O)Nc1ccc(/C=N/NC(N)=S)cc1`, the half-maximal inhibitory concentration (IC50) in assay [1] (setting [6]) and in assay [2] (setting [7]) was over 50 µM each time.
As for `CNC(=S)NN=C1C(=O)Nc2ccccc21` [Compound M1, 1-Isatin-4-methyl-3-thiosemicarbazone], the IC50 in assay [1] (setting [3]) turned out to be 35.3 µM; in assay [2] (Table 2, unit inferred), 19.4 µM. Further, in assay [2] (Table 2), the MDR1 select. came to 1.82.
With `O=C1Nc2ccc(Br)cc2/C1=N/NC(=S)Nc1ccc(F)cc1` [drawing 22], the 50% inhibitory concentration (IC50) in assay [1] (setting [6]) was determined as 13.1 ± 4.8 µM; in assay [2] (setting [7]), 5.8 ± 2.5 µM. For the same compound, the MDR1 selectivity in assay [2] (Table 1) was determined as 2.3.
In the case of `Cc1ccc(NC(=S)N/N=C2\C(=O)Nc3ccccc32)cc1` [Compound M16, 1-Isatin-4-(4′-methylphenyl)thiosemicarbazone], the IC50 in assay [1] (setting [4]) came out at 24 µM; in assay [2] (setting [5]) it was 2.6 µM. In addition, the MDR1 select. in assay [2] (Table 2) came out at 9.23.
On to `COc1ccc(NC(=S)N/N=C/c2ccccn2)cc1` [drawing 37], for which the concentration for half-maximal inhibition (IC50) in assay [1] (setting [6]) was determined as 3.4 ± 1.5 µM; in assay [2] (setting [7]) it was 2.4 ± 0.5 µM. Besides, the MDR1 selectivity in assay [2] (Table 1) was found to be 1.4.
`O=C1Nc2ccccc2C1=O`: the concentration for half-maximal inhibition (IC50) in assay [1] (setting [6]) and in assay [2] (setting [7]) was over 50 µM each time.
Turning to `COc1ccc(NC(=S)N/N=C2\CCc3ccccc32)cc1`, the IC50 in assay [1] (setting [6]) and in assay [2] (setting [7]) was over 50 µM in each case.
Turning to `COc1ccc(NC(=S)N/N=C2\C(=O)Nc3ccc(F)cc32)cc1` [Compound 7, 1-(5′-Fluoroisatin)-4-(4′-methoxyphenyl)-3-thiosemicarbazone], the “MDR1-inverse selectivity (in words)” value in assay [2] was “MDR1-inverse selectivity”.
Turning to `NC(=S)N/N=C/c1ncccc1N`, the IC50 in assay [1] (setting [6]) turned out to be 1.4 ± 2.5 µM; in assay [2] (setting [7]), 5.9 ± 2.6 µM. Also, the MDR1 selectivity in assay [2] (Table 1) is 0.2.
For `O=C1Nc2ccccc2C1=NNC(=S)Nc1ccc(O)cc1` [Compound M4, 1-Isatin-(4′-hydroxyphenyl)-3-thiosemicarbazone], the IC50 in assay [1] (setting [3]) is 35.8 µM; in assay [2] (Table 2, unit inferred) it was 21.6 µM. Further, the MDR1 select. in assay [2] (Table 2) is listed as 1.66.
As to `O=C1Nc2ccc(Br)cc2/C1=N/NC(=S)Nc1ccc(F)cc1` [NSC716771, 1-(5′-Bromoisatin)-4-(4′-fluorophenyl)-3-thiosemicarbazone], in assay [2], the “MDR1-inverse selectivity (in words)” value was “MDR1-inverse selectivity”.
In the case of `CC(C)NC(=S)NN=C1C(=O)Nc2ccccc21` [Compound M15, 1-Isatin-4-isopropyl-3-thiosemicarbazone], the IC50 came out at 39.4 µM in assay [1] (setting [3]) and 10.2 µM in assay [2] (Table 2, unit inferred). Moreover, the MDR1 select. in assay [2] (Table 2) turned out to be 3.84.
Take `COc1ccc(NC(=S)N/N=C/c2ccccn2)cc1` [Compound 10, 1-(2′-Pyridinecarboxaldehyde)-4-(4′-methoxyphenyl)-3-thiosemicarbazone]: the “MDR1-inverse selectivity (in words)” value in assay [2] is listed as “MDR1-inverse selectivity”.
On the same count and under the same terms, to `COc1ccc(NC(=S)N/N=C2\C(=O)N(C)c3ccccc32)cc1` [Compound 8, 1-(N-methylisatin)-4-(4′-methoxyphenyl)-3-thiosemicarbazone] belongs “MDR1-inverse selectivity”; to `C=CCNC(=S)N/N=C1\C(=O)Nc2ccccc21` [Compound 13, 1-Isatin-4-allyl-3-thiosemicarbazone], “MDR1-inverse selectivity”.
Take `O=C1Nc2ccc([N+](=O)[O-])cc2C1=NNC(=S)Nc1ccccc1` [NSC716766, 1-(5′-Nitroisatin)-4-phenyl-3-thiosemicarbazone]: the “MDR1-inverse selectivity (in words)” value in assay [2] is recorded as “MDR1-inverse selectivity”.
